Test results reported in patent US5422344A, “Method of treating retroviral infections in mammals” (The United States of America as represented by the …, priority 1990, dated 1995).
Like-named read-outs stand apart in the source and are kept apart here.

Tests used:
[1] = system: HIV-IIIB (HIV-1) replication in H9 cells; test: HIV replication (RT activity) in acute infection of H9 cells; assay type: cell-based; details: for RT activity: 7 days postinfection; for RT/Cell: 1 h treatment
Protocol: HIV-Acute Infection of H9 Cells by HIV and Drug Treatment: One ml of culture supernatant of H9/HIV-IIIB cells (10^6 /ml) was used after centrifugation (200xg, 20 min) and filtration (0.45 μm) for infecting 10^5 H9 cells in the presence or absence of different levels of CPT, m-AMSA or VP-16. Control cells received equivalent volumes of DMSO. The cells were incubated for 1 h at 37° C., pelleted, washed and resuspended in fresh media. […] (1981) J. Virol. 38: 239-48.
CPT Inhibition of HIV Replication Following Acute Infection of H9 Cells with HIV-IIIB. In order to determine appropriate concentrations of CPT which would permit cell viability and growth while inhibiting viral infection or replication, H9 cells were infected with HIV-IIIB as described above in the absence or presence of different CPT doses. The cells were incubated for 1 h at 37° C., pelleted, washed and resuspended in fresh media. Reverse transcriptase (RT) activity in the culture media was measured seven days after infection.
Since CPT is an anticancer drug and a known topo I inhibitor, its effects on HIV replication were compared to those of other anticancer drugs which are known to inhibit the related topoisomerase II enzyme.

[2] = Cell number, viability (trypan blue dye exclusion) and growth of H9 cells; assay type: cell-based; details: human, h9 cells
[3] = system: H9 cells; test: as above; assay type: cell-based; details: for Cell No.: 7 days postinfection
[4] = system: Friend virus/spleen focus forming virus (SFFV); test: Inhibition of Friend virus disease in mice (spleen weight, IP); assay type: in vivo, male NFS mice; details: for Number Friend disease positive (spleen weight >0.2 g) / Spleen weight AVG.: 4 weeks
Text: INHIBITION OF FRIEND VIRUS DISEASE IN MICE BY CAMPTOTHECIN. […] The Friend virus/spleen focus forming virus (SFFV) mouse model was used to test CPT in vivo. SFFV is a defective type C retrovirus which induces the rapid onset of erythroleukemia, characterized by severe splenomegaly, and death of the affected animal within 3-6 weeks after innoculation. A well characterized stock of SFFV, in complex with an amphotropic murine C-type virus which induced only a low incidence of lymphoid and myloid disease after a long latency, was injected into adult mice at viral dilutions which would be expected to induce Friend erythroleukemia in essentially 100% of infected mice.
Male NFS mice were injected IP with 0.5 ml of virus stock to which CPT, disolved in DMSO, was added. The average weight of a mouse was 24 g, and CPT was added from a stock at 10 mg/ml. DMSO was added to A, E and I viral inoculum at 2.8%, the maximum level. Animals were sacrificed 4 weeks after inoculation, and spleens were weighed to determine the incidence of Friend virus induced splenomegaly.

[5] = system: Moloney MuLV; test: Moloney MuLV replication in vitro; assay type: cell-based, Moloney murine leukemia virus
[6] = system: equine infectious anemia virus (EIAV); test: EIAV replication / infection in cells; assay type: cell-based
[7] = system: HIV; test: Virus production in chronically HIV-infected cells; assay type: cell-based; details: non-cytotoxic doses; preliminary evidence
[8] = system: Simian Virus 40 DNA replication; details: Snapka 1986; cited from earlier work
[9] = system: mammalian cells; details: cytotoxic doses, Wall et al., cited from earlier work
[10] = system: experimental tumors and human colon cancer; details: cited from earlier work
[11] = group B, virus dil. 1/500, CPT 5 mg/kg IP
[12] = group C, virus dil. 1/500, CPT 10 mg/kg IP
[13] = group D, virus dil. 1/500, CPT 20 mg/kg IP
[14] = group F, virus dil. 1/2000, CPT 5 mg/kg IP
[15] = group G, virus dil. 1/2000, CPT 10 mg/kg IP
[16] = group H, virus dil. 1/2000, CPT 20 mg/kg IP
[17] = group J, no virus, CPT 5 mg/kg IP
[18] = group K, no virus, CPT 10 mg/kg IP
[19] = group L, no virus, CPT 20 mg/kg IP

CC[C@@]1(O)C(=O)OCc2c1cc1n(c2=O)Cc2cc3ccccc3nc2-1 [CPT, Camptothecin] showed an RT activity ([1]; 0.005 μM CPT, 1 h) of 429 ± 116 cpm/cell 10^5, an RT/Cell ([1]; 0.005 μM CPT, day 7 after infection) of 5400 cpm/10^5 Cell and an RT/Cell ([1]; 0.005 μM CPT, day 8 after infection) of 34268 cpm/10^5 Cell. The RT/Cell ([1]; 0.005 μM CPT, day 9 after infection) was 102450 cpm/10^5 Cell, the RT activity ([1]; 0.01 μM CPT, 1 h) was 528 ± 40 cpm/cell 10^5 and the RT/Cell ([1]; 0.01 μM CPT, day 7 after infection) was 5085 cpm/10^5 Cell. For the same compound, the RT/Cell ([1]; 0.01 μM CPT, day 8 after infection) was 33968 cpm/10^5 Cell, the RT/Cell ([1]; 0.01 μM CPT, day 9 after infection) was 112870 cpm/10^5 Cell and the RT activity ([1]; 0.02 μM CPT, 1 h) was 400 ± 103 cpm/cell 10^5. The RT/Cell ([1]; 0.02 μM CPT, day 7 after infection) was 29.7 cpm/10^5 Cell, the RT/Cell ([1]; 0.02 μM CPT, day 8 after infection) was 325 cpm/10^5 Cell and the RT/Cell ([1]; 0.02 μM CPT, day 9 after infection) was 65761 cpm/10^5 Cell. The “inhibition of HIV production” value ([1]; 0.05 μM CPT, 8 and 9 days after infection) was “essentially complete inhibition of HIV production”, the RT activity ([1]; 0.05 μM CPT, 1 h) was 235 ± 62 cpm/cell 10^5 and the RT/Cell ([1]; 0.05 μM CPT, day 7 after infection) was 0.03 cpm/10^5 Cell. For the same compound, the RT/Cell ([1]; 0.05 μM CPT, day 8 after infection) was 1.5 cpm/10^5 Cell, the RT/Cell ([1]; 0.05 μM CPT, day 9 after infection) was 9.4 cpm/10^5 Cell and the RT activity ([1]; 0.1 μM CPT, 1 h) was 106 ± 30 cpm/cell 10^5. The RT activity ([1]; 0.2 μM CPT, 1 h) was 139 ± 96 cpm/cell 10^5, the “inhibitory effect on HIV replication” value ([1]; 0.005-0.02 μM CPT, 1 h, 7 days after infection) was 89-93% and the “effect of 1 hour exposure during viral infection on HIV replication” value ([1]; 1 hour exposure) was “sufficient to prevent HIV replication”. It also gave an inhibition at 0.005 µM ([1]; Human immunodeficiency virus 1, IIIB, H9, read-out: RT % Inhibition, 0.005 μM CPT, 1 h treatment, day 7 after infection) of 84%, an inhibition at 0.005 µM ([1]; Human immunodeficiency virus 1, IIIB, H9, read-out: RT % Inhibition, 0.005 μM CPT, 1 h treatment, day 8 after infection) of 74% and an inhibition at 0.005 µM ([1]; Human immunodeficiency virus 1, IIIB, H9, read-out: RT % Inhibition, 0.005 μM CPT, 1 h treatment, day 9 after infection) of 24%. The inhibition at 0.01 µM ([1]; Human immunodeficiency virus 1, IIIB, H9, read-out: RT % Inhibition, 0.01 μM CPT, 1 h treatment, day 7 after infection) was 85%, the inhibition at 0.01 µM ([1]; Human immunodeficiency virus 1, IIIB, H9, read-out: RT % Inhibition, 0.01 μM CPT, 1 h treatment, day 8 after infection) was 75% and the inhibition at 0.01 µM ([1]; Human immunodeficiency virus 1, IIIB, H9, read-out: RT % Inhibition, 0.01 μM CPT, 1 h treatment, day 9 after infection) was 17%. The inhibition at 0.02 µM ([1]; Human immunodeficiency virus 1, IIIB, H9, read-out: RT % Inhibition, 0.02 μM CPT, 1 h treatment, day 7 after infection) was 100%, the inhibition at 0.02 µM ([1]; Human immunodeficiency virus 1, IIIB, H9, read-out: RT % Inhibition, 0.02 μM CPT, 1 h treatment, day 8 after infection) was 98.8% and the inhibition at 0.02 µM ([1]; Human immunodeficiency virus 1, IIIB, H9, read-out: RT % Inhibition, 0.02 μM CPT, 1 h treatment, day 9 after infection) was 52%. The inhibition at 0.05 µM ([1]; Human immunodeficiency virus 1, IIIB, H9, read-out: RT % Inhibition, 0.05 μM CPT, 1 h treatment, day 7 after infection) was 100%, the inhibition at 0.05 µM ([1]; Human immunodeficiency virus 1, IIIB, H9, read-out: RT % Inhibition, 0.05 μM CPT, 1 h treatment, day 8 after infection) was 100% and the inhibition at 0.05 µM ([1]; Human immunodeficiency virus 1, IIIB, H9, read-out: RT % Inhibition, 0.05 μM CPT, 1 h treatment, day 9 after infection) was 100%. For the same compound, the inhibition at 0.005 µM ([1]; Human immunodeficiency virus 1, IIIB, H9, read-out: RT activity % Inhibition, 0.005 μM CPT, 1 h, 7 days postinfection) was 89 ± 4%, the inhibition at 0.01 µM ([1]; Human immunodeficiency virus 1, IIIB, H9, read-out: RT activity % Inhibition, 0.01 μM CPT, 1 h, 7 days postinfection) was 89 ± 4% and the inhibition at 0.02 µM ([1]; Human immunodeficiency virus 1, IIIB, H9, read-out: RT activity % Inhibition, 0.02 μM CPT, 1 h, 7 days postinfection) was 93 ± 2%. For the same compound, the inhibition at 0.05 µM ([1]; Human immunodeficiency virus 1, IIIB, H9, read-out: RT activity % Inhibition, 0.05 μM CPT, 1 h, 7 days postinfection) was 96 ± 1.5%, the inhibition at 0.1 µM ([1]; Human immunodeficiency virus 1, IIIB, H9, read-out: RT activity % Inhibition, 0.1 μM CPT, 1 h, 7 days postinfection) was 98 ± 0.2% and the inhibition at 0.2 µM ([1]; Human immunodeficiency virus 1, IIIB, H9, read-out: RT activity % Inhibition, 0.2 μM CPT, 1 h, 7 days postinfection) was 98 ± 0.8%. For the same compound, the “inhibiting the initiation of infection by HIV” value ([1]; cell culture) was “has been demonstrated”, the “prevention of HIV replication (RT activity)” value ([1]; one-hour treatment, 7 days after infection) was 94-100% and the viability at 168 h, 0.005 µM ([2]; 0.005 μM CPT, 7 days postinfection) was 100%. It also gave a viability at 168 h, 0.01 µM ([2]; 0.01 μM CPT, 7 days postinfection) of 100%, a viability at 168 h, 0.02 µM ([2]; 0.02 μM CPT, 7 days postinfection) of 100% and a viability at 168 h, 0.05 µM ([2]; 0.05 μM CPT, 7 days postinfection) of 100%. For the same compound, the viability at 168 h, 0.1 µM ([2]; 0.1 μM CPT, 7 days postinfection) was 100%, the viability at 168 h, 0.2 µM ([2]; 0.2 μM CPT, 7 days postinfection) was 100% and the selectivity ratio ([2]; data not shown, read-out: anti-HIV doses vs cytotoxic doses (times lower)) was 400. For the same compound, the “Cell No.” value ([3]; 0.005 μM CPT) was 2 × 10^6, the “Cell No.” value ([3]; 0.01 μM CPT) was 2.2 × 10^6 and the “Cell No.” value ([3]; 0.02 μM CPT) was 4 × 10^5. The “Cell No.” value ([3]; 0.05 μM CPT) was 1 × 10^5, the “Cell No.” value ([3]; 0.1 μM CPT) was 1 × 10^5 and the “Cell No.” value ([3]; 0.2 μM CPT) was 1 × 10^5. For the same compound, the “effect on cell viability or cell growth” value ([3]; 0.005-0.02 μM CPT) was “no effect on cell viability or cell growth was detected”, the “effect on cell growth” value ([3]; 0.05-0.2 μM CPT) was “cell growth was arrested” and the “effect on cell viability” value ([3]; 0.05-0.2 μM CPT, trypan blue dye exclusion) was “no effect on cell viability was detected”. For the same compound, the “Number Friend disease positive (spleen weight >0.2 g)” value (“Number Friend disease positive” below) [4, 11] was 4/5, the “Spleen weight AVG.” value [4, 11] was 0.78 g and the “Number Friend disease positive” value [4, 12] was 3/5. For the same compound, the “Spleen weight AVG.” value [4, 12] was 0.84 g, the “Number Friend disease positive” value [4, 13] was 4/5 and the “Spleen weight AVG.” value [4, 13] was 0.28 g. For the same compound, the “Number Friend disease positive” value [4, 14] was 1/5, the “Spleen weight AVG.” value [4, 14] was 0.22 g and the “Number Friend disease positive” value [4, 15] was 0/5. For the same compound, the “Spleen weight AVG.” value [4, 15] was 0.18 g, the “Number Friend disease positive” value [4, 16] was 1/5 and the “Spleen weight AVG.” value [4, 16] was 0.22 g. The “Number Friend disease positive” value [4, 17] was 0/5, the “Spleen weight AVG.” value [4, 17] was 0.12 g and the “Number Friend disease positive” value [4, 18] was 0/5. For the same compound, the “Spleen weight AVG.” value [4, 18] was 0.10 g, the “Number Friend disease positive” value [4, 19] was 0/5 and the “Spleen weight AVG.” value [4, 19] was 0.12 g. For the same compound, the “induction of erythroleukemia by SFFV” value ([4]; in vivo) was “blocks the induction of erythroleukemia by SFFV in vivo”, the “effect on number of mice with enlarged spleens and average spleen weight” value ([4]; vs control, virus infected mice) was “reduced the number of mice showing enlarged spleens and the average spleen weight” and the “inhibiting the initiation of infection by Moloney MuLV” value ([5]; cell culture) was “has been demonstrated”. For the same compound, the “Moloney MuLV replication” value ([5]; in vitro) was “inhibits Moloney MuLV replication in vitro”, the “inhibiting the initiation of infection by EIAV” value ([6]; cell culture) was “has been demonstrated” and the EIAV replication ([6]; chronically-infected cells) was “inhibits equine infectious anemia virus (EIAV) replication in chronically-infected cells”. For the same compound, the “virus production in chronically HIV-infected cells” value [7] was “virus production is suppressed”, the “Simian Virus 40 DNA replication” value [8] was “selectively interferes with Simian Virus 40 DNA replication” and the “fragmentation of DNA” value ([9]; mammalian cells) was “causes rapid and reversible fragmentation of DNA in mammalian cells”. The “RNA and DNA synthesis” value [9] was “inhibits RNA and DNA synthesis” and the antitumor activity [10] was “strong antitumor activity”.
